As a reminder, the Kd is the equilibrium constant for the complex coming apart. Higher therefore signals weaker binding.

Kd data for 29 compounds are collected here from BindingDB's records for doi:10.7270/Q2VX0FC0 (D3R/Abbott, 2016).

Some results are limits rather than exact numbers.

In test [1] the target is T1, Heat shock protein HSP 90-beta (Homo sapiens, UniProt P08238). Nature of the test: Thermofluor Assay. The text has this: Thermofluor Assay
(In general: Differential scanning fluorimetry follows unfolding on heating by fluorescence.)

For test [2], the target named is T1, Heat shock protein HSP 90-beta. The test can be described thus: ITC.
Description: ITC

T1 sequence (P08238 whole entry): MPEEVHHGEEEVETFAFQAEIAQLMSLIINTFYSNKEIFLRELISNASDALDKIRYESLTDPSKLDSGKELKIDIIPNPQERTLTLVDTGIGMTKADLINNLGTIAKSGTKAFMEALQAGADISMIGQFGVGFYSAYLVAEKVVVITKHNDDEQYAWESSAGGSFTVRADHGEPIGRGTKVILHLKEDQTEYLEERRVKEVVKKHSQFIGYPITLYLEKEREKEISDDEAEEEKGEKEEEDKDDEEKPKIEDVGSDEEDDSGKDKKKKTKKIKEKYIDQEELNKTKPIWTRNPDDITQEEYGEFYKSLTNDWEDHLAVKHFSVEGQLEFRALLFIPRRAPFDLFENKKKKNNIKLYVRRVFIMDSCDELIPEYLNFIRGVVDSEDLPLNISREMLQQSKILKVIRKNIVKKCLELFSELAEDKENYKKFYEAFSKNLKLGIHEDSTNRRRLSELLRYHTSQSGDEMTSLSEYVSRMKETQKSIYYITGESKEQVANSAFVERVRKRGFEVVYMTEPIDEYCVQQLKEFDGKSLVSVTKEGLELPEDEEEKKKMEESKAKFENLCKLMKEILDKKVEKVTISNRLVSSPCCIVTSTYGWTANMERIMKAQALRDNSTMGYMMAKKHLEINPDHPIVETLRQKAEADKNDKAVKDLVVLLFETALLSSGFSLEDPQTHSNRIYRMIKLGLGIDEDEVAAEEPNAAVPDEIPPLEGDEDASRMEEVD

On to `O=C(c1ccc(O)cc1O)c1ccc(O)c(O)c1O` [Polyhydroxy benzophenone, 8], for which the Kd in test [1] is more than 100 µM.

As to `O=C(c1cccc(O)c1)c1ccc(O)cc1O` [Polyhydroxy benzophenone, 12], the Kd in test [2] was 11.5 µM; in test [1], 28.9 µM.

Take `O=c1[nH]c2ccccc2n1-c1cc(-c2ccccc2O)c(O)cc1O` [hsp90_10]: the Kd amounted to 6.58 µM in test [2] and 4.58 µM in test [1].

As for `CCCc1cc(-n2c(=O)[nH]c3ccccc32)c(O)cc1O` [hsp90_12], the values for the Kd in test [2] and in test [1] were 0.0686 µM and 0.123 µM, respectively.

In the case of `COC(=O)c1cc(-n2c(=O)[nH]c3cc(C(F)(F)F)cc(Cl)c32)c(O)cc1OC` [hsp90_13], in test [1], the Kd is more than 100 µM.

In test [2], `O=c1[nH]c2ccccc2n1-c1cc(-c2ccnc3ccccc23)c(O)cc1O` [hsp90_23] returned a Kd of 3.06 µM.

Turning to `COc1cc(-c2cc(-n3c(=O)[nH]c4ccccc43)c(O)cc2O)cc(OC)c1OC` [hsp90_24], the results for the Kd in test [2] and in test [1] were 10.3 µM and 0.993 µM, respectively.

Regarding `O=c1[nH]c2ccccc2n1-c1cc(-c2cccnc2O)c(O)cc1O` [hsp90_34], the values for the Kd in test [2] and in test [1] were 54 µM and 94.8 µM, respectively.

Consider `CC1c2cc(-n3c(=O)[nH]c4ccccc43)c(O)cc2OC1(C)C` (centres undefined) [hsp90_35], for which the Kd in test [1] was more than 100 µM.

For `CC(C)c1ccc(S(=O)(=O)NCc2ccc3c(c2)[nH]c(=O)n3-c2cc(Cl)c(O)cc2O)cc1` [hsp90_38], the values for the Kd in test [2] and in test [1] were 0.115 µM and 0.225 µM, respectively.

For the compound `CCc1cc(-n2c(=O)[nH]c3ccccc32)c(O)cc1O` [hsp90_40], the values for the Kd in test [2] and in test [1] were 0.069 µM and 0.165 µM, respectively.

On to `O=c1[nH]c2cc(CNS(=O)(=O)c3ccccc3O)ccc2n1-c1cc(Cl)c(O)cc1O` [hsp90_43], for which the Kd was determined as 0.0107 µM in test [2] and 0.172 µM in test [1].

As for `O=c1[nH]c2cc(CNS(=O)(=O)c3cccnc3)ccc2n1-c1cc(Cl)c(O)cc1O` [hsp90_44], the results for the Kd in test [2] and in test [1] were 0.0268 µM and 0.376 µM, respectively.

As for `COc1cccc(OC)c1-c1cc(C)nc(N)n1` [hsp90_70], the Kd in test [2] stood at 1.48 µM; in test [1] it was 2.28 µM.

`Cc1cc(-c2ccc([N+](=O)[O-])cc2Cl)nc(N)n1` [hsp90_73]: the Kd in test [2] came to 0.393 µM; in test [1], 4.53 µM.

Take `Nc1nc(-c2ccc(C(F)(F)F)cc2Cl)cc(-c2ccc(C(F)(F)F)cc2Cl)n1` [hsp90_77]: the Kd in test [1] was more than 100 µM.

`COc1ccc(-c2cc(-c3ccc(Cl)cc3Cl)nc(N)n2)c(OC)c1` [hsp90_84] registered a Kd in test [1] of 265 µM.

On to `Nc1nc(Cl)c(/C=N/O)c(-c2ccc(Cl)cc2Cl)n1` [hsp90_87], for which the Kd in test [1] was found to be 2.25 µM.

As to `CCOC(=O)CO/N=C/c1c(Cl)nc(N)nc1-c1ccc(Cl)cc1Cl` [hsp90_91], the affinity in test [1], expressed as Kd, was 11.2 µM.

Turning to `Cc1cc(-n2nc(C(=O)NCC3COC(C)(C)O3)cc2C)nc(N)n1` (centres undefined) [hsp90_95], the Kd was determined as 64 µM in test [2] and 91 µM in test [1].

In the case of `Cc1cc(CNC(=O)N2CCN(S(C)(=O)=O)C2=O)nc(N)n1` [hsp90_120], the Kd in test [1] is more than 100 µM.

`Cn1c2c([n+](C)c1CCl)C(=O)c1ccccc1C2=O` [hsp90_128] returned a Kd in test [1] of more than 100 µM.

On to `CCCC(=O)c1cc(O)c(O)c(O)c1` [hsp90_151], for which, in test [1], the dissociation constant (Kd) was more than 100 µM.

Regarding `O=C(c1ccc(O)cc1)c1cc(Cl)ccc1O` [hsp90_164], the figures for the Kd in test [2] and in test [1] were 8.33 µM and 7.51 µM, respectively.

For the compound `CC(=O)Oc1ccc([N+](=O)[O-])c2ccccc12` [hsp90_165], the Kd in test [1] is more than 100 µM.

In the case of `O=C(CCl)NCc1cc(C(=O)c2ccc(OCCO)c(Cl)c2Cl)cc(Cl)c1O` [hsp90_171], in test [1], the Kd is more than 100 µM.

As to `CC(=O)Oc1ccc2c(=O)c(Cc3ccccc3)c(C)oc2c1OC(C)=O` [hsp90_174], the Kd in test [1] is more than 100 µM.

As for `O=C(c1ccc(O)cc1)c1ccc(O)cc1O` [hsp90_176], the Kd turned out to be 3.11 µM in test [2] and 10.6 µM in test [1].

On to `Nc1nc(N)nc(-c2ccccc2Cl)n1` [hsp90_179], for which the Kd in test [2] amounted to 7.45 µM; in test [1], 20.4 µM.
